The results in this text go back to patent US7320992B2, “Substituted 2,3-dihydro-1h-isoindol-1-one derivatives and methods of use” (Amgen Inc., priority 2003, dated 2008).

SMILES strings stand for the structures. pIC50: −log10 of the molar value.

This experiment deals with VEGF-stimulated HUVEC proliferation (Human Umbilical Vein Endothelial cells). In words: HUVEC Proliferation Assay. The conditions noted are these: 72 h incubation, CyQuant readout, read-out: inhibited VEGF-stimulated HUVEC proliferation at a level (IC50). The class given is cell-based. Here is the method: Human Umbilical Vein Endothelial cells are purchased from Clonetics, Inc., as cryopreserved cells harvested from a pool of donors. These cells, at passage 1, are thawed and expanded in EBM-2 complete medium, until passage 2 or 3. The cells are trypsinized, washed in DMEM+10% FBS+antibiotics, and spun at 1000 rpm for 10 min. Prior to centrifugation of the cells, a small amount is collected for a cell count. After centrifugation, the medium is discarded, and the cells are resuspended in the appropriate volume of DMEM+10% FBS+antibiotics to achieve a concentration of 3×10^5 cells/mL. Another cell count is performed to confirm the cell concentration. The cells are diluted to 3×10^4 cells/mL in DMEM+10% FBS+antibiotics, and 100 μL of cells are added to a 96-well plate. The cells are incubated at 37° C. for 22 h.
Prior to the completion of the incubation period, compound dilutions are prepared. Five-point, five-fold serial dilutions are prepared in DMSO, at concentrations 400-fold greater than the final concentrations desired. 2.5 μL of each compound dilution are diluted further in a total of 1 mL DMEM+10% FBS+antibiotics (400× dilution). Medium containing 0.25% DMSO is also prepared for the 0 μM compound sample. At the 22 h timepoint, the medium is removed from the cells, and 100 μL of each compound dilution is added. The cells are incubated at 37° C. for 2-3 h.
During the compound pre-incubation period, the growth factors are diluted to the appropriate concentrations. Solutions of DMEM+10% FBS+antibiotics, containing either VEGF or bFGF at the following concentrations: 50, 10, 2, 0.4, 0.08, and 0 ng/mL are prepared. For the compound-treated cells, solutions of VEGF at 550 ng/mL or bFGF at 220 ng/mL for 50 ng/mL or 20 ng/mL final concentrations, respectively, are prepared since 10 μL of each will be added to the cells (110 μL final volume). At the appropriate time after adding the compounds, the growth factors are added. VEGF is added to one set of plates, while bFGF is added to another set of plates. For the growth factor control curves, the media on wells B4-G6 of plates 1 and 2 are replaced with media containing VEGF or bFGF at the varying concentrations (50-0 ng/mL). The cells are incubated at 37° C. for an additional 72 h.
At the completion of the 72 h incubation period, the medium is removed, and the cells are washed twice with PBS. After the second wash with PBS, the plates are tapped gently to remove excess PBS, and the cells are placed at −70° C. for at least 30 min. The cells are thawed and analyzed using the CyQuant fluorescent dye (Molecular Probes C-7026), following the manufacturer's recommendations. The plates are read on a Victor/Wallac 1420 workstation at 485 nm/530 nm (excitation/emission). Raw data are collected and analyzed using a 4-parameter fit equation in XLFit. IC50 values are then determined.
Regarding `CC1(C)CNc2cc(N3Cc4cccc(NCc5ccncc5)c4C3=O)ccc21` [Example 17], the pIC50 was over 6.30. Turning to `CC(C)(C)c1ccc(N2Cc3ccnc(NCc4ccnc(N)c4)c3C2=O)cc1` [Example 83, 4-[(2-amino-pyridin-4-ylmethyl)-amino]-2-(4-tert-butyl-phenyl)-1,2-dihydro-pyrrolo[3,4-c]pyridin-3-one], the pIC50 is over 6.30. The figure for `CC1(C)CNCc2cc(N3Cc4cccc(NCc5ccncc5)c4C3=O)ccc21` [Example 20] is over 6.30.

As to `CC(C)(C)c1cc(N2Cc3cccc(NCc4ccncc4)c3C2=O)[nH]n1` [Example 46, 2-(5-tert-butyl-2H-pyrazol-3-yl)-7-[(pyridin-4-ylmethyl)-amino]-2,3-dihydro-isoindol-1-one], the pIC50 was over 6.30. The figure for `CC(C)(C)c1ccc(N2Cc3ccnc(NCc4ccncc4)c3C2=O)cc1` [Example 80, 2-(4-tert-butyl-phenyl)-4-[(pyridin-4-ylmethyl)-amino]-1,2-dihydro-pyrrolo[3,4-c]pyridin-3-one] is over 6.30; for `CC1(C)CNCc2cc(N3Cc4cccc(NCc5ccc6ncccc6c5)c4C3=O)ccc21` [Example 64, 2-(4,4-Dimethyl-1,2,3,4-tetrahydro-isoquinolin-7-yl)-7-[(quinolin-6-ylmethyl)-amino]-2,3-dihydro-isoindol-1-one] it is over 6.30; for `CC(C)(C)c1ccc(N2Cc3cccc(NCc4c[nH]c5ncccc45)c3C2=O)cc1` [Example 32, 2-(4-tert-butyl-phenyl)-7-[(1H-pyrrolo [2,3-b]pyridin-3-ylmethyl)-amino]-2,3-dihydro-isoindol-1-one] it is over 6.30. Next, `CC(C)(C)c1ccc(N2Cc3cccc(NCc4ccncc4)c3C2=O)cc1` [Example 1, 2-(4-(1,1-Dimethylethyl)phenyl)-7-((4-pyridinylmethyl)amino)-2,3-dihydro-1H-isoindol-1-one]: over 6.30; `CC(=O)N1CC(C)(C)c2ccc(N3Cc4cccc(NCc5ccncc5)c4C3=O)cc21` [Example 16, 2-(1-acetyl-3,3-dimethyl-2,3-dihydro-1H-indol-6-yl)-7-[(pyridin-4-ylmethyl)-amino]-2,3-dihydro-isoindol-1-one]: over 6.30. Next, `CC1(C)CNCc2cc(N3Cc4cccc(NCc5c[nH]c6ncccc56)c4C3=O)ccc21` [Example 35]: over 6.30.
